The values below come from PMC9546217, “Exploring novel nitrofuranyl sulfonohydrazides as anti‐Leishmania and anti‐cancer agents: Synthesis, in vitro efficacy and hit identification” (Chemical Biology & Drug Design, 2022).

Series [1] has as its system L. donovani strain 1S promastigotes. The series is described as follows: Antipromastigote assay (resazurin). The series is classed as cell-based. The note with it: L. donovani 1S, read-out: 1S IC50 ± SD, Promastigote. The method, then:
(§1) The antipromastigote activity of synthesized compounds was evaluated as described previously by Mangwegape et al. ([2021]) using three strains of L. donovani (1S (MHOM/SD/62/1S) and 9515 (MHOM/IN/95/9515)) and L. major (IR‐173 [MHOM/IR/−173]). The assay method is available in the Supinfo S1.
(§2) The antipromastigote activity of synthesized compounds was evaluated using a modified, resazurin-based method of Kulshrestha et al. ^2 and Siqueira-Neto et al. ^3 and on three Leishmania strains. Leishmania donovani (strains 1S (MHOM/SD/62/1S) and 9515 (MHOM/IN/95/9515)) and L. major (strain IR-173 (MHOM/IR/-173)) promastigotes were cultured in M199 with Hank's salts and 0.68 mM L-glutamine (Sigma Aldrich) supplemented with 50 U/mL Penicillin/Streptomycin solution (Lonza), 4.2 mM sodium bicarbonate, 25 mM Hepes, 10% fetal bovine serum, 0.25% hemin, 0.1% biotin, and 10 mM adenine (Sigma Aldrich) and the pH adjusted to 7.3 – 7.4. The promastigotes were maintained at 25 °C.
(§3) Amphothericin B (10 μM) served as the standard drug and growth medium without parasites served as the blank. The plates were incubated for 48 hours at 25 °C in humidified atmosphere. After incubation, 50 μL of resazurin solution (0.01% in PBS) was added to each well and the plates were further incubated at 25 °C in the dark for 24 hours. Absorbance was measured at 570 nm and 600 nm using the Thermofisher Scientific GO Multiscan plate reader. Data analysis was performed for each biological replicate using SkanIt 4.0 Research Edition software. Background absorbance of resazurin (600 nm) was subtracted from the absorbance values of resorufin (570 nm). The mean absorbance calculated and the percentage growth inhibition and cell viability were determined by the following equations: […]
(§4) The IC50 and Z-score were determined for each compound’s three biological replicates using the cell viability % values and GraphPad Prism 5. The mean IC50 of the biological replicates with standard deviation (SD) served as the final IC50 of each compound.

Series [2] concerns L. donovani strain 9515 promastigotes. The series can be described thus: Antipromastigote assay (resazurin). The series is classed as cell-based. The note with it: L. donovani 9515, read-out: 9515 IC50 ± SD, Promastigote. How it is done: as §1, §2, §3, §4
In series [3] the test system is L. major strain IR‐173 promastigotes. The series can be described thus: Antipromastigote assay (resazurin). Particulars: L. major IR‐173, read-out: Antileishmanial activity, IC50 ± SD, Promastigote. It counts as cell-based. The method, then: as §1, §2, §3, §4
Background: The colour change of resazurin is a common sign of viable cells or microbes.

Series [4] concerns L. donovani strain 1S amastigotes. The series can be described thus: Anti-amastigote assay (intramacrophage, THP-1 host, resazurin). The note with it: for IC50: L. donovani 1S, read-out: 1S IC50 ± SD, Amastigote; for Selectivity index SI4: L. donovani 1S: IC50 THP‐1/IC50 amastigote; for Selectivity index SI3: L. donovani 1S: IC50 Vero/IC50 amastigote; for Specificity index SpI2: L. donovani 1S: IC50 promastigote/IC50 amastigote. The series is classed as cell-based. The method, then:
(§5) The activities of synthesized compounds against the intramacrophage parasites of the three Leishmania strains were evaluated using a modified, resazurin‐based method (Jain et al., [2012]; Njanpa et al., [2021]). Suspension cultures of human acute monocytic leukemia (THP‐1) cells were maintained in RPMI‐1640 medium (Sigma Aldrich) supplemented with 10% FBS and 1% penicillin–streptomycin, at 37°C and 5% CO2 in a humidified atmosphere. Duplicate 96‐well plates (for respective anti‐amastigote and cytotoxicity assays) were seeded with 200 μl of a 2.5 × 10^5 cells/ml suspension treated with 25 ng/ml phorbol 12‐myristate 13‐acetate (PMA), followed by 48‐h incubation to promote differentiation into adherent macrophages.
(§6) For the anti‐amastigote assay, differentiated plates were carefully washed with PBS, followed by the addition of 200 μl of stationary phase promastigotes in RPMI 1640 medium with 2% FBS. An MOI of 30:1 was used for all three Leishmania strains. The parasite‐treated plates were incubated for 24 h at 32°C (L. major) or 37°C (L. donovani) and 5% CO2 to promote infection of the macrophages. […] Blanks were represented by growth medium without cells, as well as parasite‐free THP‐1 cells. The treated plates were incubated for 72 h.
(§7) After incubation, the plates were gently washed three times with PBS to remove any remaining extracellular parasites. The wells were then treated with 20 μl of 0.05% sodium dodecyl sulfate in PBS for 30 s to lyse the host macrophages. Lysis was terminated by adding 180 μl promastigote growth medium with 10% FBS. To initiate the resazurin assay, 10 μl of resazurin solution (0.025% in PBS) was added to all wells and the plates were incubated for 24 h at 32°C (L. major) or 37°C (L. donovani) and 5% CO2. Absorbance measurements, calculations, and IC50 determinations were performed as described for the antipromastigote assay (Supinfo S1).

Series [5] deals with L. donovani strain 9515 amastigotes. Described as above. It counts as cell-based. The note with it: for IC50: L. donovani 9515, read-out: 9515 IC50 ± SD, Amastigote; for Selectivity index SI6: L. donovani 9515: IC50 THP‐1/IC50 amastigote; for Selectivity index SI5: L. donovani 9515: IC50 Vero/IC50 amastigote; for Specificity index SpI3: L. donovani 9515: IC50 promastigote/IC50 amastigote. How it is done:
as §5, §6, §7

In series [6] the test system is L. major strain IR‐173 amastigotes. The series is described as above. It counts as cell-based. The note with it: for IC50: read-out: Antileishmanial activity, IC50 ± SD, Amastigote; for Specificity index SpI1: L. major IR‐173: IC50 promastigote/IC50 amastigote; for Selectivity index SI2: L. major: IC50 THP‐1/IC50 amastigote. The method, then:
as §5, §6, §7

Series [7] can be described thus: Basal cytotoxicity, resazurin assay. The note with it: African green monkey, Vero cells (kidney epithelial). The method, then:
The assay method is available in the Supinfo S1.
African green monkey kidney epithelial (Vero) cells (Cellonex, South Africa) were cultured and the basal cytotoxicity of the synthesized compounds with antileishmanial and/or anticancer activity was evaluated using the resazurin assay, as described in Mangwegape et al. ^4 Emetine served as the standard cytotoxic drug. Further use of reference drugs, controls, data analysis, calculations and IC50 determinations were identical to that of the antileishmanial assay.

Series [8] can be described thus: Cytotoxicity on differentiated host THP-1 macrophages, resazurin assay. It counts as cell-based, human. Particulars: human, PMA-differentiated THP-1 macrophages, read-out: Cytotoxicity, IC50 ± SD, THP‐1. How it is done:
Duplicate 96‐well plates (for respective anti‐amastigote and cytotoxicity assays) were seeded with 200 μl of a 2.5 × 10^5 cells/ml suspension treated with 25 ng/ml phorbol 12‐myristate 13‐acetate (PMA), followed by 48‐h incubation to promote differentiation into adherent macrophages.
Cytotoxicity of the compounds on the differentiated host THP-1 cells were also evaluated. As mentioned, duplicate plates of differentiated THP-1 cells were prepared during the anti-amastigote assay. These plates were incubated for 72 hours to differentiate, instead of replacing the growth medium with parasite-containing medium after 48 hours. […] Blanks were growth medium without cells. The treated plates were incubated for 72 hours, followed by the addition of 50 μL of resazurin solution (0.01% in PBS) to each well and 24-hour incubation.

The mark [9] stands for this setting: Leishmania major, THP-1, L. major IR‐173.

Where two headings read alike, the source gives them in different places.

On to `Cc1ccc(S(=O)(=O)N/N=C/c2ccc([N+](=O)[O-])o2)cc1` [2c, (E)-4-Methyl-N'-[(5-nitrofuran-2-yl)methylene]benzenesulfonohydrazide], for which the IC50 (as a rule, the concentration that gives 50% inhibition) is above 10 µM in series [1] (Leishmania donovani); above 10 µM in series [2] (Leishmania donovani); above 10 µM in series [3] (Leishmania major); above 10 µM in series [4] (Leishmania donovani, THP-1); above 10 µM in series [5] (Leishmania donovani, THP-1); above 10 µM in series [6] (setting [9]).

For the compound `CC(C)c1ccc(S(=O)(=O)N/N=C/c2ccc([N+](=O)[O-])o2)cc1` [2d, (E)-4-Isopropyl-N'-[(5-nitrofuran-2-yl)methylene]benzenesulfonohydrazide], the IC50 was 22.2 ± 0.8 µM in series [7]; 5 ± 1.32 µM in series [1] (Leishmania donovani); 3.62 ± 0.65 µM in series [2] (Leishmania donovani); 4.71 ± 0.33 µM in series [3] (Leishmania major); above 10 µM in series [4] (Leishmania donovani, THP-1); above 10 µM in series [5] (Leishmania donovani, THP-1). The values for the IC50 in series [6] (L. major IR‐173) and in series [6] (setting [9]) were 8.3 ± 0.78 µM and below 10 µM, respectively. In series [8], the IC50 at 72 h was determined as 93.1 ± 3.51 µM. Moreover, the “Specificity index SpI1” value in series [6] stood at 0.57. For the same compound, the “Selectivity index SI2” value in series [6] is listed as 11.

As for `CC(C)(C)c1ccc(S(=O)(=O)N/N=C/c2ccc([N+](=O)[O-])o2)cc1` [2f, (E)-4-(tert-Butyl)-N'-[(5-nitrofuran-2-yl)methylene]benzenesulfonohydrazide], the IC50 stood at 29.2 ± 5.86 µM in series [7]; 5.29 ± 0.69 µM in series [1] (Leishmania donovani); 3.5 ± 0.58 µM in series [2] (Leishmania donovani); 6.93 ± 0.83 µM in series [3] (Leishmania major); 6.36 µM in series [4] (Leishmania donovani, THP-1); 9.62 ± 1.15 µM in series [5] (Leishmania donovani, THP-1). The IC50 in series [6] (setting [9]) is above 10 µM. Further, in series [8], the IC50 at 72 h was determined as 84.6 ± 2.16 µM. Moreover, the “Selectivity index SI4” value in series [4] turned out to be 13. In series [4], the “Selectivity index SI3” value amounted to 5. The “Specificity index SpI2” value in series [4] is 0.83. For the same compound, the “Selectivity index SI6” value in series [5] amounted to 9. For the same compound, in series [5], the “Selectivity index SI5” value is 3. Also, in series [5], the “Specificity index SpI3” value was 0.36.

Regarding `O=[N+]([O-])c1ccc(/C=N/NS(=O)(=O)c2ccc(-c3ccccc3)cc2)o1` [2h, (E)-N'-[(5-Nitrofuran-2-yl)methylene]-(1,1'-biphenyl)-4-sulfonohydrazide], the IC50 in series [7] turned out to be 16.4 ± 5.8 µM; in series [1] (Leishmania donovani), 1.45 ± 0.16 µM; in series [2] (Leishmania donovani), 1.53 ± 0.14 µM; in series [3] (Leishmania major) it was 2.49 ± 0.51 µM; in series [4] (Leishmania donovani, THP-1) it was 2.94 ± 0.3 µM; in series [5] (Leishmania donovani, THP-1), 6.29 ± 0.62 µM. Further, the IC50 in series [6] (setting [9]) is above 10 µM. The IC50 at 72 h in series [8] was determined as 50.4 ± 2.26 µM. In series [4], the “Selectivity index SI4” value is reported as 17. Besides, the “Selectivity index SI3” value in series [4] is 6. Further, in series [4], the “Specificity index SpI2” value was 0.49. In addition, the “Selectivity index SI6” value in series [5] was determined as 8. Also, in series [5], the “Selectivity index SI5” value worked out at 3. Also, in series [5], the “Specificity index SpI3” value was 0.24.

`O=Cc1ccc([N+](=O)[O-])o1` [NFA, 5‐nitro‐2‐furaldehyde, reference compound]: the IC50 is 23.2 ± 2.62 µM in series [7]; 6.39 ± 0.26 µM in series [1] (Leishmania donovani); above 10 µM in series [2] (Leishmania donovani); 7.28 ± 0.1 µM in series [3] (Leishmania major); above 10 µM in series [4] (Leishmania donovani, THP-1); 8.56 ± 0.65 µM in series [5] (Leishmania donovani, THP-1). Further, in series [6] (setting [9]), the IC50 is 8.35 ± 0.89 µM. Further, the “Selectivity index SI6” value in series [5] stood at 9. For the same compound, the “Selectivity index SI5” value in series [5] came to 3. In addition, in series [6], the “Specificity index SpI1” value was 0.87. For the same compound, in series [6], the “Selectivity index SI2” value came out at 10. Also, the “Selectivity index SI1” value in series [6] (L. major: IC50 Vero/IC50 amastigote) is 3.

As for “(E)-2,4,6-Trimethyl-N'-[(5-nitrofuran-2-yl)methylene]benzenesulfonohydrazide [2e]”, the IC50 in series [1] was 3.04 ± 0.04 µM; in series [2], 3.97 ± 1.08 µM; in series [3], 7.09 ± 0.74 µM; in series [4], above 10 µM; in series [5], 6.14 ± 0.83 µM; in series [6] (L. major IR‐173), above 10 µM. Also, the “Selectivity index SI6” value in series [5] is on record as above 16. In series [5], the “Selectivity index SI5” value turned out to be 6. Further, the “Specificity index SpI3” value in series [5] is given as 0.65.
